{"source": "paper PMC10305617", "about": "“Sesquiterpene Coumarin Ethers with Selective Cytotoxic Activities from the Roots of Ferula huber-morathii Peşmen (Apiaceae) and Unequivocal Determination of the Absolute Stereochemistry of Samarcandin” (Pharmaceuticals, 2023)", "key": {"lung (A549)": {"tested_on": "lung (A549)", "details": "read-out: cytotoxic activity A549; cited from earlier work"}, "MCF-7 [1]": {"tested_on": "MCF-7", "experiment": "MTS cell viability (cytotoxic activity) assay, MCF-7", "type": "cell-based, Human", "details": "MCF-7, MTS, 72 h, mean ± SD, at least three experiments", "source_text": "(§1) Human colorectal cancer (COLO 205, CCL-222), breast cancer (MCF-7, HTB-22), chronic myelogenous leukemia (K-562, CCL-243), and umbilical vein/vascular endothelium (HUVEC, CRL-1730) cell lines were obtained from the American Type Culture Collection. The COLO 205, MCF-7, K-562, and HUVEC cell lines were maintained in Roswell Park Memorial Institute ([…], Wisent, Montreal, QC, CANADA), Eagle′s Minimum Essential Medium (EMEM, Wisent, Montreal, QC, CANADA), Iscove’s Modified Dulbecco’s Medium (IMDM, Wisent, Montreal, QC, CANADA), and Dulbecco′s Modified Eagle Medium (DMEM, Wisent, Montreal, QC, CANADA) supplemented with 10% fetal bovine serum (Capricorn, Ebsdorfergrund, Germany), 100 U/mL penicillin, and 100 µg/mL streptomycin (Wisent, Montreal, QC, CANADA), respectively. All of the cell lines were cultured at 37 °C in a humidified atmosphere containing 5% CO2.\n(§2) A 3-[4,5-dimethylthiazol-2-yl]-5-[3-carboxymethoxyphenyl]-2-[4-sulfophenyl]-2H-tetrazolium, inner salt (MTS) cell viability assay was performed to evaluate the cytotoxic activities of the sesquiterpene coumarin ethers isolated from Ferula huber-morathii. HUVEC (1 × 10^4), COLO 205 (3 × 10^4), K-562 (3 × 10^4), and MCF7 (5 × 10^4) were plated in 96-well plates. Then, 24 h later, the tested compounds were dissolved in DMSO, and the cells were exposed to the different concentrations (131.58–1.028 µM) of the compounds for 72 h. Cisplatin and doxorubicin were used as a positive control. Next, an MTS/phenazine methosulfate (PMS) (Promega, Madison, WI, USA and Sigma, St. Louis, MO, USA respectively) mixture was added to each well and incubated for 1–4 h at 37 °C. The absorbance was read on a microplate reader (Biotek, Winooski, VT, USA) at 490 nm. The cytotoxic activities of the compounds were expressed as an IC50 value. The % inhibition of cell proliferation was calculated using the formula: % Inhibition = [1-(A490test/A490cont)] × 100, where A490test = absorbance of the test sample and A490cont = absorbance of the control sample [88]. The values of the 50% inhibition of the cell proliferation (IC50) were calculated by locating the x-axis values corresponding to one-half of the absorbance values of the sample."}, "[2]": {"tested_on": "MCF-7 breast cancer cell line", "details": "read-out: cytotoxic activity MCF-7; cited from earlier work"}, "breast (MDA-MB-231)": {"tested_on": "breast (MDA-MB-231)", "design": "method as in PMID 23701832, PMID 26503061, PMID 30944714, PMID 27002410, PMID 33676992", "details": "cited from earlier work"}, "[3]": {"tested_on": "ovarian carcinoma cells (CH1)", "design": "method as in PMID 23701832", "details": "ovarian carcinoma cells (CH1); cited from earlier work"}, "melanoma (SK-MEL-28)": {"tested_on": "melanoma (SK-MEL-28)", "details": "read-out: cytotoxic activity SK-MEL-28; cited from earlier work"}, "cervical (HeLa)": {"tested_on": "cervical (HeLa)", "details": "read-out: cytotoxic activity HeLa; cited from earlier work"}, "colorectal (HT29)": {"tested_on": "colorectal (HT29)", "design": "method as in PMID 23701832, PMID 26503061, PMID 30944714, PMID 27002410, PMID 33676992", "details": "read-out: cytotoxic activity HT29; cited from earlier work"}, "HUVEC": {"tested_on": "HUVEC", "experiment": "MTS cell viability (cytotoxic activity) assay, non-cancerous HUVEC", "type": "cell-based, Human", "details": "72 h, mean ± SD, at least three experiments", "source_text": "as §1, §2"}, "COLO 205": {"tested_on": "COLO 205", "experiment": "MTS cell viability (cytotoxic activity) assay, COLO 205", "type": "cell-based, Human", "details": "COLO 205, MTS, 72 h, mean ± SD, at least three experiments", "source_text": "as §1, §2"}, "[4]": {"tested_on": "bladder cancer cells (5637)", "details": "5637; cited from earlier work"}, "ovarian (A2780)": {"tested_on": "ovarian (A2780)", "details": "read-out: cytotoxic activity A2780; cited from earlier work"}, "[5]": {"tested_on": "COLO 205, K-562, MCF-7 and HUVEC cell lines", "experiment": "MTS cytotoxicity, overall verbal grading over the cell line panel", "type": "cell-based, Human", "details": "authors' verbal summary over COLO 205, K-562, MCF-7, HUVEC", "source_text": "as §1, §2"}, "[6]": {"tested_on": "cisplatin-resistant derivatives of the human ovarian (A2780P A2780/RCIS)", "details": "A2780P A2780/RCIS; read-out: cytotoxic activity A2780P A2780/RCIS; cited from earlier work"}, "colon (HCT116)": {"tested_on": "colon (HCT116)", "details": "HCT116; read-out: cytotoxic activity HCT116; cited from earlier work"}, "[7]": {"tested_on": "chronic myelogenous leukemia (K562)", "details": "cited from earlier work"}, "K-562 [8]": {"tested_on": "K-562", "experiment": "MTS cell viability (cytotoxic activity) assay, K-562", "type": "cell-based, Human", "details": "K-562, MTS, 72 h, mean ± SD, at least three experiments", "source_text": "as §1, §2"}, "K-562 [9]": {"tested_on": "K-562", "experiment": "MTS cell viability (cytotoxic activity) assay, K-562", "type": "cell-based, Human", "details": "K-562, MTS, 72 h; root extracts"}, "caspase-9": {"tested_on": "caspase-9", "experiment": "Caspase-9 colorimetric activity assay in COLO 205 cells", "type": "cell-based, Human", "details": "COLO 205, 24 h, highest concentration (131.58 µM)", "procedure": "(§3) The caspase-3, -8, and -9 activities were detected by following the protocol of the caspase-3, -8, -9 colorimetric assay kits (Biovision, K106, K113, K119, Mountain View, CA, USA). The cells treated with mogoltadone (5) for 24 h were harvested and lysed with a RIPA (50 mM Tris-HCl, pH 8.0, 150 mM NaCl, 1% Nonidet P-40, 0.5% sodium deoxycholate and 0.1% SDS) cell lysis buffer. The lysed cells were centrifuged at 22,000 g for 30 min and the supernatant was collected in a tube. The samples (200 µg protein) were incubated with caspase substrates (final concentration, 200 µM) at 37° C for 2 h and read on a microplate reader at 405 nm. The fold-increase in enzyme activity was detected by comparison with the untreated control."}, "caspase-3": {"tested_on": "caspase-3", "experiment": "Caspase-3 colorimetric activity assay in COLO 205 cells", "type": "cell-based, Human", "details": "COLO 205, 24 h, highest concentration (131.58 µM)", "procedure": "as §3"}, "caspase-8": {"tested_on": "caspase-8", "experiment": "Caspase-8 colorimetric activity assay in COLO 205 cells", "type": "cell-based, Human", "details": "COLO 205, 24 h, highest concentration (131.58 µM)", "procedure": "as §3"}, "MCF-7 [10]": {"tested_on": "MCF-7", "experiment": "MTS cell viability (cytotoxic activity) assay, MCF-7", "type": "cell-based, Human", "details": "MCF-7, MTS, 72 h; root extracts"}}, "data": [{"smiles": "CC1=CC[C@@H]2C(C)(C)C(=O)CC[C@@]2(C)[C@@H]1COc1ccc2ccc(=O)oc2c1", "note": "[Conferone (1), conferone]", "values": [{"measurement": "IC50", "setting": "lung (A549)", "result": 38, "unit": "µM"}, {"measurement": "IC50", "setting": "MCF-7 [1]; Homo sapiens, MCF7", "result": "34 ± 0.68", "unit": "µM"}, {"measurement": "IC50", "setting": "[2]", "result": "> 100", "unit": "µM"}, {"measurement": "cytotoxic activity MDA-MB-231", "setting": "breast (MDA-MB-231)", "result": 30, "unit": "µg/mL"}, {"measurement": "IC50", "setting": "[3]", "result": 7.8, "unit": "µM"}, {"measurement": "IC50", "setting": "melanoma (SK-MEL-28)", "result": 64, "unit": "µM"}, {"measurement": "IC50", "setting": "cervical (HeLa)", "result": 38, "unit": "µM"}, {"measurement": "IC50", "setting": "colorectal (HT29)", "result": 20, "unit": "µM"}, {"measurement": "IC50", "setting": "HUVEC; Homo sapiens", "result": "46.1 ± 0.99", "unit": "µM"}, {"measurement": "IC50", "setting": "COLO 205; Homo sapiens", "result": "27.6 ± 0.69", "unit": "µM"}, {"measurement": "cytotoxic effect on bladder cancer cells (5637), in words", "setting": "[4]", "result": "no cytotoxic effect"}, {"measurement": "IC50", "setting": "ovarian (A2780)", "result": 32, "unit": "µM"}, {"measurement": "cytotoxicity in words", "setting": "[5]; listed as 1", "result": "moderate or strong cytotoxicity"}, {"measurement": "cytotoxicity in words", "setting": "[5]; listed as conferone (1)", "result": "moderate cytotoxic effect"}, {"measurement": "IC50", "setting": "[6]", "result": 25, "unit": "µM"}, {"measurement": "IC50", "setting": "colon (HCT116)", "result": 32, "unit": "µM"}, {"measurement": "cytotoxic activity K562", "setting": "[7]", "result": 86.12, "unit": "µg/mL"}, {"measurement": "IC50", "setting": "K-562 [8]; Homo sapiens, K562", "result": "55.5 ± 0.94", "unit": "µM"}]}, {"smiles": "N.N.[Cl][Pt][Cl]", "note": "[Cisplatin, reference compound]", "values": [{"measurement": "IC50 (µg/mL) K-562", "setting": "K-562 [9]", "result": "9.73 ± 0.30", "unit": "µg/mL"}, {"measurement": "IC50", "setting": "MCF-7 [1]", "result": "64.2 ± 5.25", "unit": "µM"}, {"measurement": "IC50", "setting": "HUVEC", "result": "40.7 ± 1.12", "unit": "µM"}, {"measurement": "increase in caspase-9 activity compared with the control", "setting": "caspase-9", "result": 2.07, "unit": "fold"}, {"measurement": "IC50", "setting": "COLO 205", "result": "112 ± 3.11", "unit": "µM"}, {"measurement": "increase in caspase-3 activity compared with the control", "setting": "caspase-3", "result": 6.73, "unit": "fold"}, {"measurement": "increase in caspase-8 activity compared with the control", "setting": "caspase-8", "result": 1.8, "unit": "fold"}, {"measurement": "IC50 (µg/mL) MCF-7", "setting": "MCF-7 [10]", "result": "35.52 ± 0.76", "unit": "µg/mL"}, {"measurement": "IC50", "setting": "K-562 [8]", "result": "8.1 ± 0.25", "unit": "µM"}]}]}
